US9938328B2, “Use of PEDF-derived polypeptides for treating alopecia and/or hair depigmentation” (MacKay Memorial Hospital, priority 2012, dated 2018)

How the values were obtained:
[1] = system: C57BL/6 mice; test: Chemotherapy (CYP)-induced hair loss and depigmentation in depilated mice, topical 44-mer ointment; assay type: in vivo, mouse
Protocol: (§1) Before use, the stock containing the 44-mer was prepared into a working dilution, which is then mixed with an antibiotic ointment containing 5 mg/g neomycin sulfate and 12.5 mg/g bacitracin to obtain an antibiotic ointment containing 25 μM of 44-mer. As to other PEDF peptides, 5 μl of 5 mM PEDF peptide stock was gradually dissolved in ethyl alcohol (30% w/w in distilled water), and then 1-oleoyl-rac-glycerol (1% w/w, a skin penetration enhancer) and light mineral oil (1% w/w) were gradually added. The solution was finally gelled by adding hydroxypropyl methylcellulose (5% w/w) to a final volume of 1 ml. A DMSO vehicle corresponding to the peptide formulation was prepared for the purpose of in vivo comparison. FITC-29-mer was also dissolved in the same formulation for applied on top of skin to determining the follicular distribution of FITC-29-mer.
(§2) For topical treatments, 350 mg ointment or gel containing 25 μM of PEDF peptide was spread gently over dorsal skin per mouse.
For immunostaining, de-paraffinized tissue sections were blocked with 10% goat serum for 1 hour. Dual staining was done using primary antibodies against c-kit (1:100 dilution; red) and tyrosinase (1:100 dilution) at 37° C. for 2 hours, followed by incubation with the rhodamine-conjugated goat anti-rabbit IgG antibody (1:500 dilution) for 1 hour at room temperature a before counterstaining with hematoxylin (blue) for about 7 minutes.
The vibrissae follicle cryosections were washed three times in PBS. Formalin-fixed, paraffin-embedded skin specimens were deparaffinized in xylene and rehydrated in a graded series of ethanol. Sections were then stained with TdT-mediated dUTP nick-end labeling (TUNEL)-based kit (Roche Molecular Biochemicals, Indianapolis, Ind.) following the manufacturer's instructions. The cell number was monitored by counterstaining with Hoechst 33258 (blue). The nuclei were calculated in ten randomly selected fields of the three different chambers by a Zeiss epifluorescence microscope (400×, 10 fields/sample). Pictures were recorded on Zeiss software.
6-week-old female C57BL/6 mice that had normal black fur (i.e., those had heavily melanized terminal hair shafts) were used in this example. In four independent experiments, a total of 80 mice were used. C57BL-6 mice have been widely used in the research of alopecia and hair-depigmentation induced by chemotherapy. Only mice in the resting stage of the hair cycle (telogen) were used in these studies. Since pigment production (melanogenesis) in mice occurs exclusively in anagen follicles, telogen C57BL-6 mice could be recognized by the homogeneously pink color of their back skin. Anagen was induced in the back skin of telogen mice by depilation.
In order to obtain mice that were in exactly the same stage of anagen development, the dorsal hairs were carefully shaved with an electric clipper. Nine days after the depilation, hair grown to anagen phase as judged by skin color from pink (telogen skin) to gray (early stage of anagen VI).
On day-9 post-depilation, mice were anesthetized by an intraperitoneal injection of a mixture of zoletil (6 mg/kg) and xylazine (3 mg/kg). Mice were randomly assigned to the following experimental groups. In the CYP/vehicle group, mice received intraperitoneal injection of cyclophosphamide (CYP, an anti-cancer drug) (150 mg/kg), and 350 mg antibiotic ointment was applied to the back skin at the same time. […]

[2] = system: C57BL/6 mice; test: Hydrogen peroxide (oxidative stress)-induced hair loss and depigmentation in depilated mice; assay type: in vivo, mouse; settings: ointment with 25 μM 44-mer
Protocol: as §1, §2
In this example, the relationships between the stress caused by endogenous challenge (e.g., oxidants) and hair loss and hair graying were investigated. The mice were selected and depilated as described in Example 1 above. On day-9 post-depilation, the mice were subcutaneously injected with hydrogen peroxide at a dose of 10 ml/kg body weight. […]

Q: For “VLLSPLSVATALSALSLGAEQRTESIIHRALYYDLISSPDIHGT [44-mer, 44-mer fragment (residues 78-121) of human PEDF]”, which “hair growth activity versus CYP/vehicle (photographs, FIG. 1)” value ([1]; 7 and 36 days after the CYP injection) is on record?
A: The value was “better hair growth activity”.

Q: And the “hair colour versus CYP and CYP/vehicle groups (FIG. 1)” value ([1]; 36 days after CYP injection)?
A: Its value is “substantially darker hairs”.

Q: And the “TUNNEL Labeling Index (%)” value ([1]; no CYP injection, 350 mg antibiotic ointment containing 44-mer on back skin)?
A: Its value is less than 0.1%.

Q: And the “TUNNEL Labeling Index (%)” value ([1]; with CYP 150 mg/kg i.p., 350 mg antibiotic ointment containing 25 μM 44-mer on back skin daily)?
A: The value was 10.6 ± 1.4 %.

Q: What about the “c-kit and tyrosinase expression in the bulge (immunostaining, FIG. 3)” value ([1]; with CYP, barely detected in CYP/vehicle group) of the same sequence?
A: Its value is “c-kit and tyrosinase expression were found in the bulge”.

Q: What about the “hair growth activity versus H2O2/vehicle (photographs, FIG. 4)” value ([2]; 22 days after the H2O2 injection (10 ml/kg s.c.)) of the same sequence?
A: The value was “better hair growth activity”.

Q: And the “hair color versus H2O2/vehicle (FIG. 4)” value ([2]; 22 days after the H2O2 injection)?
A: The value was “darker”.
